Source: patent US20230024302A1, “2,3,5-TRISUBSTITUTED PYRAZOLO[1,5-A]PYRIMIDINE COMPOUNDS” (Arcus Biosciences, Inc., priority 2019, published 2023)

What was measured:
PI3Kγ = target: T1, PI3Kγ (Homo sapiens, UniProt P48736); assay: PI3Kγ cellular assay in THP-1 cells (AKT pS473 AlphaLISA); assay type: cell-based; conditions: Table 1, rhMCP-1 stimulated AKT pS473, read-out: cellular potency (PI3Kγ IC50)
T1 construct: host or cells: THP-1
Procedure, shortened: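 Endogenous AKT S473 phosphorylation, detected by AlphaLISA in lysates, serves as the PI3Kγ activity read-out in stimulated, serum-starved THP-1 cells (1.8×10^5/well).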

PI3Kγ (p120γ) = target: T2, PI3Kγ (p120γ) (Homo sapiens, UniProt P48736); assay: Inhibition of PI3K kinase activity (ADP Glo), PI3Kγ; conditions: Table 1, p120γ, read-out: biochemical potency (PI3Kγ IC50)
T2 construct: purchased Promega V1761
T2 sequence (P48736 whole entry): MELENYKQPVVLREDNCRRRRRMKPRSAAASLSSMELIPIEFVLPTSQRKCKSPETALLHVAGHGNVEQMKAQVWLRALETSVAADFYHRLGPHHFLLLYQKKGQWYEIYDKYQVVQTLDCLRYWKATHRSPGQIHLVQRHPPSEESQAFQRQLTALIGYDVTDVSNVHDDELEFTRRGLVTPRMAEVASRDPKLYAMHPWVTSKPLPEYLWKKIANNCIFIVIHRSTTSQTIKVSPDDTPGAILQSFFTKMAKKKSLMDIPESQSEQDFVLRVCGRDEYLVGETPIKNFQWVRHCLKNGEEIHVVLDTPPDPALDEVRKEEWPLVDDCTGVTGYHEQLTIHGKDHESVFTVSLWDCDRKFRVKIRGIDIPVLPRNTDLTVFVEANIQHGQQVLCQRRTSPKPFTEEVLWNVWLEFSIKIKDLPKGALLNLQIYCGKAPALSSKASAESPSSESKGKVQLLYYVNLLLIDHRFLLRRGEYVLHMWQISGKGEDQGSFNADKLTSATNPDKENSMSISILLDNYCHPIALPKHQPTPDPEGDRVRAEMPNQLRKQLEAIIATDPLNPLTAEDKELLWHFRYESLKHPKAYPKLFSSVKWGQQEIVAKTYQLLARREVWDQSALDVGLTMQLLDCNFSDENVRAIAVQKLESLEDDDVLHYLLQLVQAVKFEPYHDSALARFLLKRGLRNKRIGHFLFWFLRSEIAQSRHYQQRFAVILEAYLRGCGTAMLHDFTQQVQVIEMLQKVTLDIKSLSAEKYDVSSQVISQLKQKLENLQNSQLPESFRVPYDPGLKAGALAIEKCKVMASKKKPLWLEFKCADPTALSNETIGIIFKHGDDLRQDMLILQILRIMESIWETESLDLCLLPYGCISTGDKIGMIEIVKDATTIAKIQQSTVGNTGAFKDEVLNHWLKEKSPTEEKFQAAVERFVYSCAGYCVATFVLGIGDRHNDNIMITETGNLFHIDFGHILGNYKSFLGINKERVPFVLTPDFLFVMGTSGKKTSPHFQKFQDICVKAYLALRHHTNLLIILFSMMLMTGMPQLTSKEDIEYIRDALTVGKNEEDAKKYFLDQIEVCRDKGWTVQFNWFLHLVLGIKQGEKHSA
Procedure, shortened: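 IC50 values come from a 4-parameter nonlinear fit of ADP-Glo luminescence, which measures ADP produced as PIP2 is phosphorylated to PIP3. The p120γ enzyme (2× stock 8 nM) sat with compound 1 h at rt before substrate (2× stocks: 50 μM ATP, 0.1 mg/ml PIP2) was added. Phosphorylation then proceeded 60 min at rt.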

T1 sequence (P48736 whole entry): as above

Row | IC50 (PI3Kγ) [nM] | IC50 (PI3Kγ (p120γ)) [nM] | Compound
1 | < 100 | < 100 | C[C@H](CCO)NC(=O)c1c(N)nn2ccc(-c3cc4c(c(C(F)(F)F)c3)C(=O)N([C@@H](C)C3CC3)C4)nc12 [Example 57, 5-(3-{[(R)-3-Hydroxy-1-methylpropylamino]carbonyl}-2-amino-1,4,7a-triaza-5-indenyl)-2-[(S)-1-cyclopropylethyl]-7-(trifluoromethyl)-1-isoindolinone]
2 | < 100 | < 100 | C[C@@H](C1CC1)N1Cc2cc(-c3ccn4nc(N)c(C(=O)NCCCCO)c4n3)cc(C(F)(F)F)c2C1=O [Example 58, 2-[(S)-1-Cyclopropylethyl]-5-{2-amino-3-[(4-hydroxybutylamino)carbonyl]-1,4,7a-triaza-5-indenyl}-7-(trifluoromethyl)-1-isoindolinone]
3 | < 100 | < 100 | C[C@@H](C1CC1)N1Cc2cc(-c3ccn4nc(N)c(C(=O)NCCC(C)(C)O)c4n3)cc(C(F)(F)F)c2C1=O [Example 59, 2-[(S)-1-Cyclopropylethyl]-5-{2-amino-3-[(3-hydroxy-3-methylbutylamino)carbonyl]-1,4,7a-triaza-5-indenyl}-7-(trifluoromethyl)-1-isoindolinone]
4 | < 100 | < 100 | C[C@@H](C1CC1)N1Cc2cc(-c3ccn4nc(N)c(C(=O)N[C@H]5CC[C@H](CO)CC5)c4n3)cc(C(F)(F)F)c2C1=O [Example 60, 2-Amino-5-(2-((S)-1-cyclopropylethyl)-1-oxo-7-(trifluoromethyl)isoindolin-5-yl)-N-(trans-4-(hydroxymethyl)cyclohexyl)pyrazolo[1,5-a]pyrimidine-3-carboxamide]
5 | < 100 | < 100 | C[C@@H](C1CC1)N1Cc2cc(-c3ccn4nc(N)c(C(=O)N[C@H]5CC[C@H](C(C)(C)O)CC5)c4n3)cc(C(F)(F)F)c2C1=O [Example 61, 2-Amino-5-(2-((S)-1-cyclopropylethyl)-1-oxo-7-(trifluoromethyl)isoindolin-5-yl)-N-(trans-4-(2-hydroxypropan-2-yl)cyclohexyl)pyrazolo[1,5-a]pyrimidine-3-carboxamide]
6 | < 100 | < 100 | C[C@@H](C1CC1)N1Cc2cc(-c3ccn4nc(N)c(C(=O)N[C@H]5CC[C@H](C6(O)CC6)CC5)c4n3)cc(C(F)(F)F)c2C1=O [Example 62, 2-Amino-5-(2-((S)-1-cyclopropylethyl)-1-oxo-7-(trifluoromethyl)isoindolin-5-yl)-N-(trans-4-(1-hydroxycyclopropyl)cyclohexyl)pyrazolo[1,5-a]pyrimidine-3-carboxamide]
7 | < 100 | < 100 | C[C@@H](C1CC1)N1Cc2cc(-c3ccn4nc(N)c(C(=O)N[C@H]5CCC[C@@H](O)C5)c4n3)cc(C(F)(F)F)c2C1=O [Example 63, 2-Amino-5-{2-[(1S)-1-cyclopropylethyl]-1-oxo-7-(trifluoromethyl)-2,3-dihydro-1H-isoindol-5-yl}-N-[(1S,3R)-3-hydroxycyclohexyl]pyrazolo[1,5-a]pyrimidine-3-carboxamide]
8 | < 100 | < 100 | C[C@@H](C1CC1)N1Cc2cc(-c3ccn4nc(N)c(C(=O)N[C@H]5CNC(=O)C5)c4n3)cc(C(F)(F)F)c2C1=O [Example 64, 2-Amino-5-{2-[(1S)-1-cyclopropylethyl]-1-oxo-7-(trifluoromethyl)-2,3-dihydro-1H-isoindol-5-yl}-N-[(3R)-5-oxopyrrolidin-3-yl]pyrazolo[1,5-a]pyrimidine-3-carboxamide]
9 | < 100 | < 100 | C[C@@H](C1CC1)N1Cc2cc(-c3ccn4nc(N)c(C(=O)N[C@H]5C[C@H](O)C5)c4n3)cc(C(F)(F)F)c2C1=O [Example 65, 2-Amino-5-{2-[(1S)-1-cyclopropylethyl]-1-oxo-7-(trifluoromethyl)-2,3-dihydro-1H-isoindol-5-yl}-N-[trans-3-hydroxycyclobutyl]pyrazolo[1,5-a]pyrimidine-3-carboxamide]
10 | 100 to 1000 | < 100 | C[C@@H](C1CC1)N1Cc2cc(-c3ccn4nc(N)c(C(N)=O)c4n3)cc(C(F)(F)F)c2C1=O [Example 66]
11 | < 100 | < 100 | CNC(=O)c1c(N)nn2ccc(-c3cc4c(c(C(F)(F)F)c3)C(=O)N([C@@H](C)C3CC3)C4)nc12 [Example 67, 2-[(S)-1-Cyclopropylethyl]-5-[2-amino-3-(methylamino)carbonyl-1,4,7a-triaza-5-indenyl]-7-(trifluoromethyl)-1-isoindolinone]
12 | < 100 | < 100 | CCNC(=O)c1c(N)nn2ccc(-c3cc4c(c(C(F)(F)F)c3)C(=O)N([C@@H](C)C3CC3)C4)nc12 [Example 68, 2-[(S)-1-Cyclopropylethyl]-5-[2-amino-3-(ethylamino)carbonyl-1,4,7a-triaza-5-indenyl]-7-(trifluoromethyl)-1-isoindolinone]
13 | < 100 | < 100 | C[C@@H](C1CC1)N1Cc2cc(-c3ccn4nc(N)c(C(=O)Nc5ccncc5)c4n3)cc(C(F)(F)F)c2C1=O [Example 69, (S)-2-Amino-5-(2-(1-cyclopropylethyl)-1-oxo-7-(trifluoromethyl)isoindolin-5-yl)-N-(pyridin-4-yl)pyrazolo[1,5-a]pyrimidine-3-carboxamide]
14 | < 100 | < 100 | C[C@@H](C1CC1)N1Cc2cc(-c3ccn4nc(N)c(C(=O)Nc5cccnc5)c4n3)cc(C(F)(F)F)c2C1=O [Example 70, (S)-2-Amino-5-(2-(1-cyclopropylethyl)-1-oxo-7-(trifluoromethyl)isoindolin-5-yl)-N-(pyridin-3-yl)pyrazolo[1,5-a]pyrimidine-3-carboxamide]
15 | < 100 | < 100 | C[C@@H](C1CC1)N1Cc2cc3cc(c2C1=O)OCCOCCNC(=O)c1c(N)nn2ccc-3nc12 [Example 71, 6-[(S)-1-Cyclopropylethyl]-19-amino-10.13-dioxa-6.16.20.21.24-pentaazapentacyclo[16.5.2.12,9.04,8.021,25]hexacosa-1(24),2,4(8),9(26),18(25),19,22-heptaene-7,17-dione]
16 | < 100 | < 100 | C[C@@H](C1CC1)N1Cc2cc(-c3ccn4nc(N)c(C(=O)N[C@@H]5CCC[C@H]5O)c4n3)cc(NS(C)(=O)=O)c2C1=O [Example 72, 2-Amino-5-{2-[(1S)-1-cyclopropylethyl]-7-methanesulfonamido-1-oxo-2,3-dihydro-1H-isoindol-5-yl}-N-[(1R,2R)-2-hydroxycyclopentyl]pyrazolo[1,5-a]pyrimidine-3-carboxamide]
17 | < 100 | < 100 | CNC(=O)c1c(N)nn2ccc(-c3cc4c(c(NS(C)(=O)=O)c3)C(=O)N([C@@H](C)C3CC3)C4)nc12 [Example 73, 2-Amino-5-{2-[(1S)-1-cyclopropylethyl]-7-methanesulfonamido-1-oxo-2,3-dihydro-1H-isoindol-5-yl}-N-methylpyrazolo[1,5-a]pyrimidine-3-carboxamide]
18 | < 100 | < 100 | CCNC(=O)c1c(N)nn2ccc(-c3cc4c(c(NS(C)(=O)=O)c3)C(=O)N([C@@H](C)C3CC3)C4)nc12 [Example 74, 2-Amino-5-{2-[(1S)-1-cyclopropylethyl]-7-methanesulfonamido-1-oxo-2,3-dihydro-1H-isoindol-5-yl}-N-ethylpyrazolo[1,5-a]pyrimidine-3-carboxamide]
